Test results published in the supplement of paper PMC10307832.

Legend:
Experiment in all cases: relative viability (nuclei count vs DMSO), 5 days (fraction); higher = more cells survive
JZL-184 + OSI-027 = compound: C1CN(CCC1C(C2=CC3=C(C=C2)OCO3)(C4=CC5=C(C=C4)OCO5)O)C(=O)OC6=CC=C(C=C6)[N+](=O)[O-] [JZL-184] + COc1cccc2cc(-c3nc([C@H]4CC[C@H](C(=O)O)CC4)n4ncnc(N)c34)[nH]c12 [OSI-027] (partner 0.5 µM)
How it was run: (§1)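 Relative viability divides the nuclei count in treated wells by that in vehicle wells. Lung cancer cell lines were seeded in 1536-well plates, dosed by pin tool the next day, and fixed and stained after 5 days in one step with final 0.05% Triton X-100, 1% formaldehyde and 1 ug/ml Hoechst. Dosing was a single drug or a fixed anchor-drug dose plus five library-drug doses (not always all listed) in √10 steps, and values are medians of duplicate plates imaged at 4×.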

JZL-184 + Trametinib = compound: C1CN(CCC1C(C2=CC3=C(C=C2)OCO3)(C4=CC5=C(C=C4)OCO5)O)C(=O)OC6=CC=C(C=C6)[N+](=O)[O-] [JZL-184] + CC(=O)Nc1cccc(-n2c(=O)n(C3CC3)c(=O)c3c(Nc4ccc(I)cc4F)n(C)c(=O)c(C)c32)c1 [Trametinib] (partner 0.02 µM)
How it was run: as §1

JZL-184 + Vorinostat = compound: C1CN(CCC1C(C2=CC3=C(C=C2)OCO3)(C4=CC5=C(C=C4)OCO5)O)C(=O)OC6=CC=C(C=C6)[N+](=O)[O-] [JZL-184] + O=C(CCCCCCC(=O)Nc1ccccc1)NO [Vorinostat] (partner 1 µM)
How it was run: as §1

JZL-184 + AZD7762 = compound: C1CN(CCC1C(C2=CC3=C(C=C2)OCO3)(C4=CC5=C(C=C4)OCO5)O)C(=O)OC6=CC=C(C=C6)[N+](=O)[O-] [JZL-184] + NC(=O)Nc1cc(-c2cccc(F)c2)sc1C(=O)N[C@H]1CCCNC1 [AZD7762] (partner 0.2 µM)
How it was run: as §1

JZL-184 + Luminespib = compound: C1CN(CCC1C(C2=CC3=C(C=C2)OCO3)(C4=CC5=C(C=C4)OCO5)O)C(=O)OC6=CC=C(C=C6)[N+](=O)[O-] [JZL-184] + CCNC(=O)c1noc(-c2cc(C(C)C)c(O)cc2O)c1-c1ccc(CN2CCOCC2)cc1 [Luminespib] (partner 0.01 µM)
How it was run: as §1

Row | Cell Line | relative viability (JZL-184 + OSI-027; first compound 0.04 µM) | relative viability (JZL-184 + OSI-027; first compound 0.4 µM) | relative viability (JZL-184 + OSI-027; first compound 1.265 µM) | relative viability (JZL-184 + OSI-027; first compound 4 µM) | relative viability (JZL-184 + Trametinib; first compound 0.04 µM) | relative viability (JZL-184 + Trametinib; first compound 0.4 µM) | relative viability (JZL-184 + Trametinib; first compound 1.265 µM) | relative viability (JZL-184 + Trametinib; first compound 4 µM) | relative viability (JZL-184 + Vorinostat; first compound 0.04 µM) | relative viability (JZL-184 + Vorinostat; first compound 0.4 µM) | relative viability (JZL-184 + Vorinostat; first compound 1.265 µM) | relative viability (JZL-184 + Vorinostat; first compound 4 µM) | relative viability (JZL-184 + AZD7762; first compound 0.04 µM) | relative viability (JZL-184 + AZD7762; first compound 0.4 µM) | relative viability (JZL-184 + AZD7762; first compound 1.265 µM) | relative viability (JZL-184 + AZD7762; first compound 4 µM) | relative viability (JZL-184 + Luminespib; first compound 0.04 µM) | relative viability (JZL-184 + Luminespib; first compound 0.4 µM) | relative viability (JZL-184 + Luminespib; first compound 1.265 µM) | relative viability (JZL-184 + Luminespib; first compound 4 µM)
1 | HCC-366 | 1.04 | 0.868 | 0.97 | 0.825 | 0.384 | 0.348 | 0.332 | 0.276 | 0.408 | 0.242 | 0.361 | 0.313 | 0.293 | 0.209 | 0.275 | 0.257 | – | – | – | –
2 | HCC-827 | 0.954 | 0.769 | 0.798 | 0.707 | 0.536 | 0.55 | 0.583 | 0.515 | 0.942 | 0.244 | 0.577 | 0.839 | 0.147 | 0.182 | 0.19 | 0.206 | 0.804 | 0.587 | 0.91 | 0.671
3 | HOP-62 | 0.981 | 0.805 | 0.826 | 0.866 | 0.372 | 0.4 | 0.375 | 0.371 | 0.659 | 0.601 | 0.706 | 0.612 | 0.617 | 0.53 | 0.754 | 0.417 | 1.03 | 0.968 | 0.902 | 0.957
4 | IA-LM | – | – | – | – | – | – | – | – | 0.893 | 0.988 | 0.965 | 0.989 | – | – | – | – | – | – | – | –
5 | LC-2-ad | 0.92 | 0.926 | 0.907 | 0.734 | 0.94 | 0.896 | 0.93 | 0.881 | 0.774 | 0.67 | 0.676 | 0.669 | 0.909 | 0.8 | 0.853 | 0.829 | 1.27 | 0.891 | 1.11 | 1.03
6 | LCLC-97TM1 | 0.493 | 0.393 | 0.504 | 0.559 | 0.215 | 0.182 | 0.222 | 0.206 | 1.03 | 0.644 | 0.619 | 0.749 | 0.281 | 0.134 | 0.244 | 0.303 | 0.812 | 0.66 | 0.828 | 0.653
7 | LCLC-103H | 0.525 | 0.528 | 0.428 | 0.455 | 0.644 | 0.664 | 0.691 | 0.674 | 0.72 | 0.752 | 0.768 | 0.734 | 0.791 | 0.764 | 0.833 | 0.754 | 1.04 | 0.829 | 0.835 | 0.866
8 | NCI-H520 | 0.233 | 0.229 | 0.257 | 0.213 | 0.729 | 0.63 | 0.686 | 0.651 | 0.884 | 0.683 | 0.798 | 0.678 | – | – | – | – | 0.222 | 0.226 | 0.239 | 0.209
9 | NCI-H661 | 0.806 | 0.638 | 0.761 | 0.53 | 0.606 | 0.531 | 0.548 | 0.586 | 0.865 | 0.714 | 0.975 | 0.772 | – | – | – | – | 0.969 | 0.898 | 0.938 | 0.975
10 | NCI-H1563 | 0.794 | 0.729 | 0.776 | 0.7 | – | – | – | – | – | – | – | – | – | – | – | – | 0.513 | 0.571 | 0.535 | 0.511
11 | NCI-H1650 | 0.674 | 0.504 | 0.837 | 0.608 | 0.778 | 0.403 | 0.801 | 0.657 | 0.715 | 0.541 | 0.604 | 0.561 | – | – | – | – | 0.225 | 0.207 | 0.216 | 0.178
12 | NCI-H1703 | – | – | – | – | – | – | – | – | – | – | – | – | 0.106 | 0.117 | 0.129 | 0.112 | – | – | – | –
13 | NCI-H1792 | 0.683 | 0.744 | 0.779 | 0.62 | 0.347 | 0.406 | 0.495 | 0.448 | – | – | – | – | 0.747 | 0.548 | 0.713 | 0.858 | 0.401 | 0.383 | 0.56 | 0.408
14 | NCI-H2009 | 0.764 | 0.574 | 0.694 | 0.653 | 0.228 | 0.276 | 0.329 | 0.301 | 0.702 | 0.692 | 0.69 | 0.745 | – | – | – | – | 1.1 | 0.917 | 1.08 | 1.02
15 | NCI-H2023 | 0.407 | 0.381 | 0.405 | 0.317 | 0.717 | 0.612 | 0.568 | 0.54 | 0.766 | 0.587 | 0.588 | 0.44 | – | – | – | – | 0.958 | 0.624 | 0.918 | 0.575
16 | NCI-H2228 | 0.643 | 0.51 | 0.613 | 0.632 | 0.465 | 0.472 | 0.704 | 0.629 | 0.898 | 0.572 | 0.639 | 0.703 | – | – | – | – | 0.142 | 0.1 | 0.168 | 0.122
17 | SK-LU-1 | 0.405 | 0.341 | 0.423 | 0.358 | 0.448 | 0.402 | 0.653 | 0.46 | 0.795 | 0.744 | 0.894 | 0.717 | – | – | – | – | 0.312 | 0.201 | 0.215 | 0.2
18 | SK-MES-1 | 0.597 | 0.625 | 0.673 | 0.535 | 0.623 | 0.524 | 0.609 | 0.5 | 1.12 | 1.05 | 1.05 | 0.955 | – | – | – | – | 0.913 | 0.765 | 0.874 | 0.726
19 | SW 1573 | 0.733 | 0.548 | 0.591 | 0.525 | 0.602 | 0.564 | 0.589 | 0.445 | 0.824 | 0.64 | 0.788 | 0.551 | – | – | – | – | 0.224 | 0.276 | 0.251 | 0.222
20 | UMC-11 | 0.612 | 0.461 | 0.499 | 0.457 | 0.891 | 0.679 | 0.736 | 0.646 | 0.405 | 0.415 | 0.381 | 0.304 | – | – | – | – | 1.26 | 0.992 | 1.05 | 1.04
